Assay results published in US20250368614A1, “COMPOUNDS AND METHODS FOR YAP/TEAD MODULATION AND INDICATIONS THEREFOR” (OPNA BIO SA, priority 2023, published 2025).

These molecules were tested on TEAD-dependent transcription (12XGTIIC TEAD response element luciferase reporter) in MSTO-211H cells (assay: TEAD-dependent transcription cell-based luciferase reporter assay in MSTO-211H+12XGTIIC cells). Details: Homo sapiens; MSTO-211H+12XGTIIC reporter cells, 24 hours compound incubation, luminescence normalized to cell viability signal, geometric mean; read-out: MSTO-211H GMean IC50 (uM) Cell Assay Reporter Cell Variant: TEAD.
From the text: Determine Inhibitor Activity Against TEAD-Dependent Transcription in a Cell-Based Reporter Assay
The human mesothelioma cell line MSTO-211H was stably transfected with a pGL4.21 plasmid containing a synthetic promoter with 12 copies of the GTIIC TEAD response element that drives the expression of a luciferase reporter gene^1 using Lipofectamine transfection reagent (Thermo Fisher). Transfected cells were selected using puromycin and single cell clones expressing this construct (referred to as MSTO-211H+12XGTIIC) were generated by limiting dilution. MSTO-211H cells was characterized by genetic alterations in key components of the Hippo pathway^2, resulting in up-regulation of YAP/TEAD-mediated transcription. […] To evaluate TEAD inhibitors, the MSTO-211H+12XGTIIC cell line was seeded in a 96-well plate in 50 μL of culture media at 1×10^4 cells per well and incubated at 37° C. overnight. Serial dilutions of compounds (in total volume of 50 μL of culture media) were added to the cells and incubated at 37° C. for 24 hours. Each plate included cells treated with DMSO as high controls and cells treated with 20 μM of the reference compound K-975 (a known TEAD inhibitor^3) as low controls. Cell viability was assayed by the addition of 25 μL of CellTiter-Fluor reagent (Promega) followed by a 30-minute incubation at 37° C. and quantification of the fluorescence signal (Ex400/Em505). Subsequently, luciferase expression was assayed by the addition of 25 μL of ONE-Glo reagent (Promega) followed by a 10-minute incubation at room temperature and quantification of the luminescence signal. The luminescence signal was normalized to the fluorescence signal to correct for any loss in cell viability over the 24-hour compound incubation period. The percentage of inhibition of normalized luminescence signal, indicative of compound-mediated inhibition of TEAD-dependent transcription, at individual compound concentrations relative to high and low controls was calculated. The data were analyzed by using nonlinear regression to generate IC50 values for individual compounds.
O=C(NCCC(=O)N1CCc2c(cccc2Nc2ccc(C(F)(F)F)cn2)C1)Nc1ccccn1 [Compound O-0186, 1-(3-oxo-3-(5-((5-(trifluoromethyl)pyridin-2-yl)amino)-3,4-dihydroisoquinolin-2(1H)-yl)propyl)-3-(pyridin-2-yl)urea] gave an IC50 of 0.001 to 10 µM. O=C(NCCC(=O)N1CCc2c(cccc2Nc2ccc(C(F)(F)F)cn2)C1)NC1CC1 [Compound O-0187, 1-cyclopropyl-3-(3-oxo-3-(5-((5-(trifluoromethyl)pyridin-2-yl)amino)-3,4-dihydroisoquinolin-2(1H)-yl)propyl)urea] showed an IC50 of 0.001 to 10 µM. O=C(NCCC(=O)N1CCc2c(cccc2Nc2ccc(C(F)(F)F)c(F)c2)C1)NC1CC1 [Compound O-0188, 1-cyclopropyl-3-(3-(5-((3-fluoro-4-(trifluoromethyl)phenyl)amino)-3,4-dihydroisoquinolin-2(1H)-yl)-3-oxopropyl)urea] gave an IC50 of 0.001 to 10 µM. NC(=O)NCCC(=O)N1CCc2c(cccc2Nc2ccc(C(F)(F)F)nc2)C1 [Compound O-0189, 1-(3-oxo-3-(5-((6-(trifluoromethyl)pyridin-3-yl)amino)-3,4-dihydroisoquinolin-2(1H)-yl)propyl)urea] gave an IC50 of 0.001 to 10 µM. Work on NC(=O)NCCC(=O)N1CCc2c(cccc2Nc2ccc(C(F)(F)F)c(F)c2)C1 [Compound O-0190, 1-(3-(5-((3-fluoro-4-(trifluoromethyl)phenyl)amino)-3,4-dihydroisoquinolin-2(1H)-yl)-3-oxopropyl)urea] yielded an IC50 of 0.001 to 10 µM. For Nc1cccc(CNC(=O)N2CCc3c(cccc3Nc3ccc(C(F)(F)F)cc3)C2)n1 [Compound O-0191, N-((6-aminopyridin-2-yl)methyl)-5-((4-(trifluoromethyl)phenyl)amino)-3,4-dihydroisoquinoline-2(1H)-carboxamide], the IC50 was 0.001 to 10 µM. For NC(=O)NCCC(=O)N1CCc2c(cccc2Nc2ccc(C(F)(F)F)cc2F)C1 [Compound O-0192, 1-(3-(5-((2-fluoro-4-(trifluoromethyl)phenyl)amino)-3,4-dihydroisoquinolin-2(1H)-yl)-3-oxopropyl)urea], the IC50 was 0.001 to 10 µM. O=C(NCCC(=O)N1CCc2c(cccc2Nc2ccc(C(F)(F)F)cc2F)C1)NC1CC1 [Compound O-0193, 1-cyclopropyl-3-(3-(5-((2-fluoro-4-(trifluoromethyl)phenyl)amino)-3,4-dihydroisoquinolin-2(1H)-yl)-3-oxopropyl)urea] was tested, and the IC50 was 0.001 to 10 µM. O=C(NCc1ccccn1)N1CCc2c(cccc2Nc2ccc(C(F)(F)F)cc2)C1 [Compound O-0194, N-(pyridin-2-ylmethyl)-5-((4-(trifluoromethyl)phenyl)amino)-3,4-dihydroisoquinoline-2(1H)-carboxamide] gave an IC50 of 0.001 to 10 µM. Molecule O=C(NCCC(=O)N1CCc2c(cccc2Nc2ccc(C(F)(F)F)nc2)C1)NC1CC1 [Compound O-0195, 1-cyclopropyl-3-(3-oxo-3-(5-((6-(trifluoromethyl)pyridin-3-yl)amino)-3,4-dihydroisoquinolin-2(1H)-yl)propyl)urea] has an IC50 of 0.001 to 10 µM. Molecule O=C1NC(=O)C(CC(=O)N2CCc3c(cccc3Nc3ccc(C(F)(F)F)cc3F)C2)N1 (stereo not drawn) [Compound O-0196, 5-(2-(5-((2-fluoro-4-(trifluoromethyl)phenyl)amino)-3,4-dihydroisoquinolin-2(1H)-yl)-2-oxoethyl)imidazolidine-2,4-dione] has an IC50 of 0.001 to 10 µM. O=C1NC(=O)C(CC(=O)N2CCc3c(cccc3Nc3ccc(C(F)(F)F)c(F)c3)C2)N1 (stereo not drawn) [Compound O-0197, 5-(2-(5-((3-fluoro-4-(trifluoromethyl)phenyl)amino)-3,4-dihydroisoquinolin-2(1H)-yl)-2-oxoethyl)imidazolidine-2,4-dione] showed an IC50 of 0.001 to 10 µM. With CN1CCN(CCCS(=O)(=O)N2CCc3c(cccc3Nc3ccc(C(F)(F)F)cc3)C2)CC1 [Compound O-0198, 2-((3-(4-methylpiperazin-1-yl)propyl)sulfonyl)-N-(4-(trifluoromethyl)phenyl)-1,2,3,4-tetrahydroisoquinolin-5-amine] the IC50 was 0.001 to 10 µM. With O=C1NS(=O)(=O)c2cc(C(=O)N3CCc4c(cccc4Nc4ccc(C(F)(F)F)cc4)C3)ccc21 [Compound O-0199, 6-(5-((4-(trifluoromethyl)phenyl)amino)-1,2,3,4-tetrahydroisoquinoline-2-carbonyl)benzo[d]isothiazol-3(2H)-one 1,1-dioxide] the IC50 was 0.001 to 10 µM. For CNS(=O)(=O)c1cccc(C(=O)N2CCc3c(cccc3Nc3ccc(C(F)(F)F)cc3)C2)c1 [Compound O-0200, N-methyl-3-(5-((4-(trifluoromethyl)phenyl)amino)-1,2,3,4-tetrahydroisoquinoline-2-carbonyl)benzenesulfonamide], the IC50 was 0.001 to 10 µM. For CS(=O)(=O)c1cc(C(=O)N2CCc3c(cccc3Nc3ccc(C(F)(F)F)cc3)C2)ccn1 [Compound O-0201, (2-(methylsulfonyl)pyridin-4-yl)(5-((4-(trifluoromethyl)phenyl)amino)-3,4-dihydroisoquinolin-2(1H)-yl)methanone], the IC50 was 0.001 to 10 µM. CS(=O)(=O)c1cccc(C(=O)N2CCc3c(cccc3Nc3ccc(C(F)(F)F)cc3)C2)c1 [Compound O-0202, (3-(methylsulfonyl)phenyl)(5-((4-(trifluoromethyl)phenyl)amino)-3,4-dihydroisoquinolin-2(1H)-yl)methanone] was tested, and the IC50 was 0.001 to 10 µM. N=C(N)N1CCC(C(=O)N2CCc3c(cccc3Nc3ccc(C(F)(F)F)cn3)C2)C1 (stereo not drawn) [Compound O-0203, 3-(5-((5-(trifluoromethyl)pyridin-2-yl)amino)-1,2,3,4-tetrahydroisoquinoline-2-carbonyl)pyrrolidine-1-carboximidamide] showed an IC50 of 0.001 to 10 µM. O=C(CCS(=O)(=O)C(F)(F)F)N1CCc2cc(Nc3ccc(C(F)(F)F)cc3)ccc2C1 [Compound O-0205, 1-(6-((4-(trifluoromethyl)phenyl)amino)-3,4-dihydroisoquinolin-2(1H)-yl)-3-((trifluoromethyl)sulfonyl)propan-1-one] was tested, and the IC50 was 0.001 to 10 µM. In the case of O=C(C1CS(=O)(=O)C1)N1CCc2cc(Nc3ccc(C(F)(F)F)cc3)ccc2C1 [Compound O-0207, (1,1-dioxidothietan-3-yl)(6-((4-(trifluoromethyl)phenyl)amino)-3,4-dihydroisoquinolin-2(1H)-yl)methanone], the IC50 is reported as 0.001 to 10 µM. Molecule O=C(C1CCS(=O)(=O)CC1)N1CCc2cc(Nc3ccc(C(F)(F)F)cc3)ccc2C1 [Compound O-0208, (1,1-dioxidotetrahydro-2H-thiopyran-4-yl)(6-((4-(trifluoromethyl)phenyl)amino)-3,4-dihydroisoquinolin-2(1H)-yl)methanone] has an IC50 of 0.001 to 10 µM.
